Values quoted from earlier work as cited in article PMC4264749, “Phlebotomy Treatment for Elimination of Perfluoroalkyl Acids in a Highly Exposed Family: A Retrospective Case-Series” (PLoS ONE, 2014).

Details: cited from earlier work

## cholestyramine
  facilitating removal / elimination of PFAAs: successful
Individuals using it for other medical reasons, West Virginia drinking water contamination
  PFOA levels in users compared to non-users: significantly lower
